33 compounds from US7608712B2, “Pyridine imidazoles and aza-indoles as progesterone receptor modulators” (Janssen Pharmaceutica N.V., priority 2004, dated 2009) can be followed below.

SMILES strings stand for the structures.

The test system of one assay is T47D human breast cancer cells. Nature of the assay: T47D alkaline phosphatase assay (In Vitro Test). To be noted: Homo sapiens, T47D. The class given is cell-based. As to the method: T47D human breast cancer cells are grown in RPMI medium without phenol red (Invitrogen) containing 10% (v/v) heat-inactivated fetal bovine serum (FBS; Hyclone), 1% (v/v) penicillin-streptomycin (Invitrogen), 1% (w/v) glutamine (Invitrogen), and […] insulin (Sigma). Incubation conditions are 37 °C in a humidified 5% (v/v) carbon dioxide environment. For assay, the cells are plated in 96-well tissue culture plates at 10,000 cells per well in assay medium [RPMI medium without phenol red (Invitrogen) containing 5% (v/v) charcoal-treated FBS (Hyclone) and 1% (v/v) penicillin-streptomycin (Invitrogen)]. Two days later, the medium is decanted and the compounds are added in a final concentration of 0.1% (v/v) dimethyl sulfoxide in fresh assay medium. Twenty-four hours later, an alkaline phosphatase assay is performed using a SEAP kit (BD Biosciences Clontech, Palo Alto, Calif.). Briefly, the medium is decanted and the cells are fixed for 30 minutes at room temperature with 5% (v/v) formalin (Sigma). The cells are washed once with room temperature Hank's buffered saline solution (Invitrogen). Equal volumes (0.05 mL) of 1× Dilution Buffer, Assay Buffer and 1:20 substrate/enhancer mixture are added. After 1-hour incubation at room temperature in the dark, the lysate is transferred to a white 96-well plate (Dynex) and luminescence is read using a LuminoSkan Ascent (Thermo Electron, Woburn, Mass.).
For orientation: IC50 means the midpoint of a concentration-inhibition curve. On to `CC1(C)C(=O)Nc2ncc(-c3cccc(F)c3)cc21` [Example 31, 5-(3-Fluoro-phenyl)-3,3-dimethyl-1,3-dihydro-pyrrolo[2,3-b]pyridin-2-one], for which the IC50 is 4.48 µM.

The assay is the same for the next values; noted with them: Homo sapiens, T47D, read-out: % inh.
As for `CC1(C)C(=O)Nc2ncc(-c3cccc(F)c3)cc21` [Example 31, 5-(3-Fluoro-phenyl)-3,3-dimethyl-1,3-dihydro-pyrrolo[2,3-b]pyridin-2-one], the inhibition at 3 µM came out at 95% and the inhibition at 10 µM is 92%.

The assay is the same for the next values; noted with them: Homo sapiens, T47D; @ 3 uM; read-out: % inh.
For `O=C1Nc2ncc(-c3cccc(F)c3)cc2C12CCCCC2` [Example 32, 5-(3-Fluoro-phenyl)-3,3-spiro[cyclohexane]-1,3-dihydro-pyrrolo[2,3-b]pyridin-2-one], the inhibition at 3 µM amounted to 58%.

Still in this assay, the particulars now being: Homo sapiens, T47D; @ 10 uM; read-out: % inh.
Regarding `O=C1Nc2ncc(-c3cccc(F)c3)cc2C12CCCCC2` [Example 32, 5-(3-Fluoro-phenyl)-3,3-spiro[cyclohexane]-1,3-dihydro-pyrrolo[2,3-b]pyridin-2-one], the inhibition at 10 µM is 58%.

The assay is the same for the next values; noted with them: Homo sapiens, T47D; Table 4; read-out: IC50.
Turning to `O=C1Nc2ncc(-c3cccc(F)c3)cc2C12CCCCC2` [Example 32, 5-(3-Fluoro-phenyl)-3,3-spiro[cyclohexane]-1,3-dihydro-pyrrolo[2,3-b]pyridin-2-one], the IC50 turned out to be 7.03 µM.

The same assay, now with this note: Homo sapiens, T47D; activation (footnote to Table 3).
The EC50 is the concentration at which the effect is half-maximal. A high value points to lower potency in that assay. Compound `O=C1N=C2C=CC(c3ccc(Cl)c(Cl)c3)=CN2C12CCCC2` [Example 28, 6-(3,4-Dichloro-phenyl)-3,3-spiro[pentane]-imidazo[1,2-a]pyridin-2-one] registered an EC50 of 1.95 µM.

The same assay, now with this note: Table 3; test concentration not given.
Turning to `O=C1N=C2C=CC(Cl)=CN2C12CCCCC2` [Example 6, 6-Chloro-spiro[cyclohexane]-imidazo[1,2-a]pyridin-2-one], the “% inh.” value was 42%.
Still for that read-out and setting: the figure for `CC1(C)C(=O)N=C2C=CC(c3cc(F)cc(F)c3)=CN21` [Example 7, 6-(3,5-Difluoro-phenyl)-3,3-dimethyl-imidazo[1,2-a]pyridin-2-one] is 40%.
The same measure, in the same setting: to `CC1(C)C(=O)N=C2C=CC(c3cccc(C#N)c3)=CN21` [Example 4, 3-(3,3-Dimethyl-2-oxo-2,3-dihydro-imidazo[1,2-a]pyridin-6-yl)-benzonitrile] belongs 19%; to `CC1(C)C(=O)N=C2C=CC(Cl)=CN21` [Example 5, 6-Chloro-3,3-dimethyl-imidazo[1,2-a]pyridin-2-one], 31%.
The same measure, in the same setting: the figure for `N#Cc1cccc(C2=CN3C(=NC(=O)C34CCCCC4)C=C2)c1` [Example 20, 6-(3-cyano-phenyl)-3,3-spiro[cyclohexane]-imidazo[1,2-a]pyridin-2-one] is 96%; for `O=C1N=C2C=CC(c3cccc(C(F)(F)F)c3)=CN2C12CCCCC2` [Example 19, 6-(3-trifluoromethyl-phenyl)-3,3-spiro[cyclohexane]-imidazo[1,2-a]pyridin-2-one] it is 97%.
On to `O=C1N=C2C=CC(c3cccc(Cl)c3)=CN2C12CCCCC2` [Example 3, 6-(3-chloro-phenyl)-3,3-spiro[cyclohexane]-imidazo[1,2-a]pyridin-2-one], for which the “% inh.” value stood at 104%.
On the same count and under the same terms, to `O=C1N=C2C=CC(c3cccc([N+](=O)[O-])c3)=CN2C12CCCCC2` [Example 18, 6-(3-nitro-phenyl)-3,3-spiro[cyclohexane]-imidazo[1,2-a]pyridin-2-one] belongs 98%; to `O=C1N=C2C=CC(c3cccc(Cl)c3)=CN2C12CCCC2` [Example 24, 6-(3-chloro-phenyl)-3,3-spiro[pentane]-imidazo[1,2-a]pyridin-2-one], 1%.
Still for that read-out and setting: to `O=C1N=C2C=CC(c3ccc(Cl)c(Cl)c3)=CN2C12CCCCC2` [Example 22] belongs 88%.
Consider `O=C1N=C2C=CC(c3ccc(F)c(Cl)c3)=CN2C12CCCC2` [Example 30, 6-(3-Chloro-4-fluoro-phenyl)-3,3-spiro[pentane]-imidazo[1,2-a]pyridin-2-one], for which the “% inh.” value was found to be 21%.
Turning to `O=C1N=C2C=CC(c3ccc(F)cc3F)=CN2C12CCCCC2` [Example 23, 6-(2,4-Difluoro-phenyl)-3,3-spiro[cyclohexane]-imidazo[1,2-a]pyridin-2-one], the “% inh.” value worked out at 96%.
Still for that read-out and setting: to `CC1(C)C(=O)N=C2C=CC(c3cccc(C(F)(F)F)c3)=CN21` [Example 9, 3,3-Dimethyl-6-(3-trifluoromethyl-phenyl)-imidazo[1,2-a]pyridin-2-one] belongs 17%; to `O=C1N=C2C=CC(c3cccc(F)c3)=CN2C12CCCC2` [Example 26, 6-(3-Fluoro-phenyl)-3,3-spiro[pentane]-imidazo[1,2-a]pyridin-2-one], 2%; to `O=C1N=C2C=CC(c3cc(C(F)(F)F)cc(C(F)(F)F)c3)=CN2C12CCCC2` [Example 29, 6-(3,5-Bis-trifluoromethyl-phenyl)-3,3-spiro[pentane]-imidazo[1,2-a]pyridin-2-one], 25%.
Same read-out and setting: to `CC1(C)C(=O)N=C2C=CC(Br)=CN21` [Example 1-C1, 6-Bromo-3,3-dimethyl-imidazo[1,2-a]pyridin-2-one] belongs 53%; to `N#Cc1cccc(C2=CN3C(=NC(=O)C34CCCC4)C=C2)c1` [Example 25, 6-(3-cyano-phenyl)-3,3-spiro[pentane]-imidazo[1,2-a]pyridin-2-one], 2%.
On the same count and under the same terms, to `O=C1N=C2C=CC(c3cc(C(F)(F)F)cc(C(F)(F)F)c3)=CN2C12CCCCC2` [Example 17, 6-(3,5-Bis-trifluoromethyl-phenyl)-3,3-spiro[cyclohexane]-imidazo[1,2-a]pyridin-2-one] belongs 04%.
Turning to `CC1(C)C(=O)N=C2C=CC(c3cc(C(F)(F)F)cc(C(F)(F)F)c3)=CN21` [Example 11, 6-(3,5-Bis-trifluoromethyl-phenyl)-3,3-dimethyl-imidazo[1,2-a]pyridin-2-one], the “% inh.” value came out at 19%.
Still for that read-out and setting: to `CC1(C)C(=O)N=C2C=CC(c3cccc(F)c3)=CN21` [Example 13, 6-(3-Fluoro-phenyl)-3,3-dimethyl-imidazo[1,2-a]pyridin-2-one] belongs 14%; to `O=C1N=C2C=CC(c3cccc(F)c3)=CN2C12CCCCC2` [Example 15, 6-(3-Fluoro-phenyl)-3,3-spiro[cyclohexane]-imidazo[1,2-a]pyridin-2-one], 0%; to `O=C1N=C2C=CC(c3cc(F)cc(F)c3)=CN2C12CCCCC2` [Example 21, 6-(3,5-Difluoro-phenyl)-3,3-spiro[cyclohexane]-imidazo[1,2-a]pyridin-2-one], 99%.
On the same count and under the same terms, the figure for `CC1(C)C(=O)N=C2C=CC(c3ccccc3Cl)=CN21` [Example 14, 6-(2-Chloro-phenyl)-3,3-dimethyl-imidazo[1,2-a]pyridin-2-one] is 0%; for `CC1(C)C(=O)N=C2C=CC(c3cccc(Cl)c3)=CN21` [Example 2, 6-(3-Chloro-phenyl)-3,3-dimethyl-imidazo[1,2-a]pyridin-2-one] it is 15%; for `CC1(C)C(=O)N=C2C=CC(c3cccc([N+](=O)[O-])c3)=CN21` [Example 8, 3,3-Dimethyl-6-(3-nitro-phenyl)-imidazo[1,2-a]pyridin-2-one] it is 33%.
In the case of `O=C1N=C2C=CC(c3ccc(Cl)c(Cl)c3)=CN2C12CCCC2` [Example 28, 6-(3,4-Dichloro-phenyl)-3,3-spiro[pentane]-imidazo[1,2-a]pyridin-2-one], the “% inh.” value was determined as 22%.
As to `CC1(C)C(=O)N=C2C=CC(c3ccc(F)cc3F)=CN21` [Example 10, 6-(2,4-Difluoro-phenyl)-3,3-dimethyl-imidazo[1,2-a]pyridin-2-one], the “% inh.” value came to 29%.
Take `COc1cccc(C2=CN3C(=NC(=O)C34CCCCC4)C=C2)c1` [Example 16, 6-(3-Methoxy-phenyl)-3,3-spiro[cyclohexane]-imidazo[1,2-a]pyridin-2-one]: the “% inh.” value came to 01%.
As for `O=C1N=C2C=CC(c3cccc([N+](=O)[O-])c3)=CN2C12CCCC2` [Example 27, 6-(3-nitro-phenyl)-3,3-spiro[pentane]-imidazo[1,2-a]pyridin-2-one], the “% inh.” value came out at 86%.
The same measure, in the same setting: the figure for `O=C1N=C2C=CC(Br)=CN2C12CCCC2` [Example 1-C2, 6-Bromo-3,3-spiro[cyclopentane]-imidazo[1,2-a]pyridin-2-one] is 35%; for `COc1cccc(C2=CN3C(=NC(=O)C3(C)C)C=C2)c1` [Example 12, 6-(3-Methoxy-phenyl)-3,3-dimethyl-imidazo[1,2-a]pyridin-2-one] it is 3.1%.
